Ends that are not written are not given here.
Key:
RBA CRL-1747 = assay: In vitro cellular uptake and blocking of ^99mTc-EC-angiostatin with unlabeled angiostatin; format: cell-based, rat; settings: unlabeled angiostatin 0-200 μM, RBA CRL-1747, 2 hours; read-out: IC-50 of angiostatin (inhibition of ^99mTc-EC-angiostatin uptake)
Method: The IC-50 of angiostatin was 176 μM (R^2=0.998) (FIG. 3).

[1] = test system: RBA CRL-1747 mammary tumor; assay: Biodistribution in breast (mammary) tumor-bearing rats; format: in vivo, rat; settings: iv
Method: (§1) Biodistribution was assessed in mammary tumor-bearing rats (RBA CRL-1747, n=3/time interval, iv). Studies were performed 14 to 17 days after implantation when tumors reached approximately 1 cm in diameter. Following administration of the radiotracer, rats were sacrificed at 0.5-4 hrs. The selected tissues were excised, weighed and counted for radioactivity by using a gamma counter (Packard Instruments, Downers Grove, Ill.). The biodistribution of tracer in each sample was calculated as percentage of the injected dose per gram of tissue wet weight (% ID/g).
as §1, with “breast” for “mammary”

[2] = test system: RBA CRL-1747 (breast cancer cells); assay: In vitro cellular uptake compared to ^99mTc-EC in breast cancer cells; format: cell-based, rat; settings: 0.5-2 hrs
Method: An in vitro cell culture using tumor cells was incubated with ^99mTc-EC-celecoxib (4 μCi/50,000 cells/well) at 0.5-2 hrs in RBA CRL-1747.
An in vitro cell culture using tumor cells was incubated with ^99mTc-EC-LH antibody (4 μCi/50,000 cells/well) at 0.5-2 hrs in RBA CRL-1747 (breast cancer cells).
An in vitro cell culture using tumor cells was incubated with ^99mTc-EC-carnitine (4-6 μCi/50,000 cells/well) at 0.5-2 hrs in breast cancer cells.

[3] = test system: A549 human lung cancer tumor; assay: Tissue distribution in lung tumor-bearing nude mice; format: in vivo
Method: Female athymic nude mice (NCr-nu/nu, NCI, Bethasda, Md.) were inoculated with human lung cancer cells (A549 tumor cell line, 3×10^6 cells/mouse, intramuscular) by one author in the mid-dorsal region. After the tumor reached 6 mm, separate biodistribution studies using ^99mTc-EC-DG and 18F-FDG were conducted. Each received ^99mTc-EC-DG or 18F-FDG intravenously (n=3/time point). The injection activity was 1-3 μCi/mouse. The injected mass of ^99mTc-EC-DG was 0.2 mg/rodent.

[4] = test system: human prostate cancer cells (LNCap, PC-3); assay: In vitro cellular uptake in human prostate cancer cells; format: cell-based; settings: 0.5-2 hrs, LNCap and PC-3
Method: An in vitro cell culture using tumor cells was incubated with ^99mTc-EC-LHRH (4-6 μCi/100,000 cells/well) at 0.5-2 hrs in human prostate cancer cells. Two types cell lines were used. They are either sensitive to androgen (LNCap) or unresponsive to androgen (PC-3) therapy.

Compound: angiostatin
- IC50 (RBA CRL-1747): 176 µM

Compound: Cc1ccc(-c2cc(C(F)(F)F)nn2-c2ccc(S(=O)(=O)NC(=O)NCC(=O)NCCNC(=O)C3C[S][99Tc]45(=[O])[S]CC(C(=O)O)[N]4CC[N]35)cc2)cc1 (centres unmarked) [^99mTc-EC-celecoxib]
- tumor-to-tissue count density ratios ([1]; 0.5-4 hrs): increased tumor-to-tissue count density ratios as a function of time
- BONE & JOINT ([1]; 30 min): 0.324 ± 0.036 % of injected dose per gram of tissue weight
- BONE/MUSCLE ([1]; 30 min): 2.419 ± 0.225
- Blood ([1]; 30 min): 2.293 ± 0.038 % of injected dose per gram of tissue weight
- Heart ([1]; 30 min): 0.475 ± 0.025 % of injected dose per gram of tissue weight
- Intestine ([1]; 30 min): 0.406 ± 0.039 % of injected dose per gram of tissue weight
- Kidney ([1]; 30 min): 4.963 ± 0.147 % of injected dose per gram of tissue weight
- Liver ([1]; 30 min): 1.556 ± 0.046 % of injected dose per gram of tissue weight
- Lung ([1]; 30 min): 1.033 ± 0.035 % of injected dose per gram of tissue weight
- Muscle ([1]; 30 min): 0.133 ± 0.007 % of injected dose per gram of tissue weight
- Spleen ([1]; 30 min): 0.594 ± 0.298 % of injected dose per gram of tissue weight
- Stomach ([1]; 30 min): 0.370 ± 0.010 % of injected dose per gram of tissue weight
- Thyroid ([1]; 30 min): 0.784 ± 0.090 % of injected dose per gram of tissue weight
- Tumor ([1]; 30 min): 0.587 ± 0.062 % of injected dose per gram of tissue weight
- Tumor/Blood ([1]; 30 min): 0.255 ± 0.022
- Tumor/Muscle ([1]; 30 min): 4.375 ± 0.304
- UTERUS ([1]; 30 min): 0.595 ± 0.003 % of injected dose per gram of tissue weight
- UTERUS/BLOOD ([1]; 30 min): 0.259 ± 0.003
- UTERUS/MUSCLE ([1]; 30 min): 4.471 ± 0.257
- BONE & JOINT ([1]; 2 h): 0.190 ± 0.003 % of injected dose per gram of tissue weight
- BONE/MUSCLE ([1]; 2 h): 3.058 ± 0.114
- Blood ([1]; 2 h): 1.388 ± 0.063 % of injected dose per gram of tissue weight
- Heart ([1]; 2 h): 0.283 ± 0.017 % of injected dose per gram of tissue weight
- Intestine ([1]; 2 h): 0.276 ± 0.061 % of injected dose per gram of tissue weight
- Kidney ([1]; 2 h): 6.088 ± 0.305 % of injected dose per gram of tissue weight
- Liver ([1]; 2 h): 1.461 ± 0.049 % of injected dose per gram of tissue weight
- Lung ([1]; 2 h): 0.712 ± 0.098 % of injected dose per gram of tissue weight
- Muscle ([1]; 2 h): 0.062 ± 0.003 % of injected dose per gram of tissue weight
- Spleen ([1]; 2 h): 0.965 ± 0.056 % of injected dose per gram of tissue weight
- Stomach ([1]; 2 h): 0.187 ± 0.004 % of injected dose per gram of tissue weight
- Thyroid ([1]; 2 h): 0.449 ± 0.015 % of injected dose per gram of tissue weight
- Tumor ([1]; 2 h): 0.424 ± 0.019 % of injected dose per gram of tissue weight
- Tumor/Blood ([1]; 2 h): 0.307 ± 0.018
- Tumor/Muscle ([1]; 2 h): 6.876 ± 0.704
- UTERUS ([1]; 2 h): 0.334 ± 0.034 % of injected dose per gram of tissue weight
- UTERUS/BLOOD ([1]; 2 h): 0.240 ± 0.021
- UTERUS/MUSCLE ([1]; 2 h): 5.442 ± 0.852
- BONE & JOINT ([1]; 4 h): 0.178 ± 0.022 % of injected dose per gram of tissue weight
- BONE/MUSCLE ([1]; 4 h): 4.314 ± 0.739
- Blood ([1]; 4 h): 1.031 ± 0.033 % of injected dose per gram of tissue weight
- Heart ([1]; 4 h): 0.224 ± 0.004 % of injected dose per gram of tissue weight
- Intestine ([1]; 4 h): 0.190 ± 0.006 % of injected dose per gram of tissue weight
- Kidney ([1]; 4 h): 6.363 ± 0.260 % of injected dose per gram of tissue weight
- Liver ([1]; 4 h): 1.506 ± 0.080 % of injected dose per gram of tissue weight
- Lung ([1]; 4 h): 0.500 ± 0.011 % of injected dose per gram of tissue weight
- Muscle ([1]; 4 h): 0.002 ± 0.004 % of injected dose per gram of tissue weight
- Spleen ([1]; 4 h): 0.981 ± 0.041 % of injected dose per gram of tissue weight
- Stomach ([1]; 4 h): 0.139 ± 0.004 % of injected dose per gram of tissue weight
- Thyroid ([1]; 4 h): 0.372 ± 0.021 % of injected dose per gram of tissue weight
- Tumor ([1]; 4 h): 0.406 ± 0.004 % of injected dose per gram of tissue weight
- Tumor/Blood ([1]; 4 h): 0.395 ± 0.014
- Tumor/Muscle ([1]; 4 h): 9.715 ± 0.387
- UTERUS ([1]; 4 h): 0.263 ± 0.005 % of injected dose per gram of tissue weight
- UTERUS/BLOOD ([1]; 4 h): 0.255 ± 0.005
- UTERUS/MUSCLE ([1]; 4 h): 6.278 ± 0.199
- cellular uptake compared to ^99mTc-EC [2]: significant increase in uptake

Compound: OC[C@H]1OC(O)[C@H]([18F])[C@@H](O)[C@@H]1O (some centres unmarked) [^18FDG, [^18F]fluorodeoxyglucose, reference compound]
- Blood ([3]; 30 min): 0.793 ± 0.067 % of injected dose per gram of tissue weight
- Brain ([3]; 30 min): 6.557 ± 0.390 % of injected dose per gram of tissue weight
- Heart ([3]; 30 min): 11.94 ± 2.571 % of injected dose per gram of tissue weight
- Intestine ([3]; 30 min): 2.322 ± 0.542 % of injected dose per gram of tissue weight
- Kidney ([3]; 30 min): 1.137 ± 0.117 % of injected dose per gram of tissue weight
- Liver ([3]; 30 min): 1.051 ± 0.057 % of injected dose per gram of tissue weight
- Lung ([3]; 30 min): 2.490 ± 0.209 % of injected dose per gram of tissue weight
- Muscle ([3]; 30 min): 4.876 ± 0.621 % of injected dose per gram of tissue weight
- Spleen ([3]; 30 min): 1.824 ± 0.196 % of injected dose per gram of tissue weight
- Stomach ([3]; 30 min): 5.046 ± 0.461 % of injected dose per gram of tissue weight
- Thyroid ([3]; 30 min): 4.490 ± 0.526 % of injected dose per gram of tissue weight
- Tumor ([3]; 30 min): 2.226 ± 0.150 % of injected dose per gram of tissue weight
- Tumor/Blood ([3]; 30 min): 2.821 ± 0.144
- Tumor/Lung ([3]; 30 min): 0.912 ± 0.119
- Tumor/Muscle ([3]; 30 min): 0.463 ± 0.026
- Blood ([3]; 2 h): 0.236 ± 0.009 % of injected dose per gram of tissue weight
- Brain ([3]; 2 h): 3.113 ± 0.132 % of injected dose per gram of tissue weight
- Heart ([3]; 2 h): 20.33 ± 7.675 % of injected dose per gram of tissue weight
- Intestine ([3]; 2 h): 2.764 ± 0.496 % of injected dose per gram of tissue weight
- Kidney ([3]; 2 h): 0.553 ± 0.104 % of injected dose per gram of tissue weight
- Liver ([3]; 2 h): 0.586 ± 0.040 % of injected dose per gram of tissue weight
- Lung ([3]; 2 h): 2.222 ± 0.137 % of injected dose per gram of tissue weight
- Muscle ([3]; 2 h): 5.409 ± 0.611 % of injected dose per gram of tissue weight
- Spleen ([3]; 2 h): 1.903 ± 0.144 % of injected dose per gram of tissue weight
- Stomach ([3]; 2 h): 4.374 ± 0.864 % of injected dose per gram of tissue weight
- Thyroid ([3]; 2 h): 4.617 ± 0.400 % of injected dose per gram of tissue weight
- Tumor ([3]; 2 h): 1.699 ± 0.172 % of injected dose per gram of tissue weight
- Tumor/Blood ([3]; 2 h): 7.261 ± 1.007
- Tumor/Lung ([3]; 2 h): 0.775 ± 0.113
- Tumor/Muscle ([3]; 2 h): 0.319 ± 0.031
- Blood ([3]; 4 h): 0.203 ± 0.062 % of injected dose per gram of tissue weight
- Brain ([3]; 4 h): 2.065 ± 0.080 % of injected dose per gram of tissue weight
- Heart ([3]; 4 h): 19.35 ± 8.286 % of injected dose per gram of tissue weight
- Intestine ([3]; 4 h): 1.562 ± 0.342 % of injected dose per gram of tissue weight
- Kidney ([3]; 4 h): 0.568 ± 0.027 % of injected dose per gram of tissue weight
- Liver ([3]; 4 h): 0.785 ± 0.039 % of injected dose per gram of tissue weight
- Lung ([3]; 4 h): 2.280 ± 0.182 % of injected dose per gram of tissue weight
- Muscle ([3]; 4 h): 4.743 ± 0.610 % of injected dose per gram of tissue weight
- Spleen ([3]; 4 h): 1.591 ± 0.161 % of injected dose per gram of tissue weight
- Stomach ([3]; 4 h): 2.278 ± 0.455 % of injected dose per gram of tissue weight
- Thyroid ([3]; 4 h): 4.424 ± 0.442 % of injected dose per gram of tissue weight
- Tumor ([3]; 4 h): 1.606 ± 0.182 % of injected dose per gram of tissue weight
- Tumor/Blood ([3]; 4 h): 8.932 ± 1.973
- Tumor/Lung ([3]; 4 h): 0.717 ± 0.106
- Tumor/Muscle ([3]; 4 h): 0.346 ± 0.048
- tumor-to-tissue ratios, ^99mTc-EC-DG versus 18F-FDG ([3]; A549 nude mice, iv): higher tumor/blood ratios

Compound: ^99mTc-EC-LHRH (QHWSYGLRPG; also: 99mTc-ethylenedicysteine label, site not given here; UniProt P01148 24-33, looked up)
- cellular uptake compared to ^99mTc-EC [4]: significant increased uptake

From patent publication US9050378B2, “N2S2 chelate-targeting ligand conjugates” (Board of Regents, The University of Texas System, priority 2003, dated 2015)
